Measurements reported in US20230248745A1, “SILVER ENHANCED CANNABINOID ANTIBIOTICS” (priority 2020, published 2023).
“Also recorded” adds a separate entry of the source. Like-named read-outs stand apart in the source and are kept apart here.

How the values were obtained:
E. coli (strain K12) = test: Kill-curve test (CFU over time); format: cell-based, Escherichia coli; conditions: for inhibitory effect on E. coli growth over 24 hours / inhibition of E. coli growth over 24 hours / inhibition of E. coli growth (summary): cannabinoid alone; for inhibitory effect on E. coli growth over 24 hours: 8 mg/L; for inhibition of E. coli growth over 24 hours: 16 mg/L; for inhibition of E. coli growth (summary): concentrations up to 16 mg/L
Protocol: (§1) Antibacterial growth was measured using a checkerboard analysis or qualitatively using agar plates with zones of inhibition. Viability was measured by the number of colony forming units (CFU) over time.
(§2) Escherichia coli (E. coli), strain K12, was cultured in Luria-Bertani (LB) medium and inoculated at 37 C.
(§3) For each test tube, 1 mL of culture at OD600 of 0.005 was added to 1 mL of LB medium containing antibiotics to reach target sub-MIC concentrations of each compound. Samples of 100 μL was extracted from each tube at the determined time stamps followed by 10-fold serial dilutions. 10 μL of each dilution was then added on the LB agar plates that were subsequently incubated for 24 hours. Colonies were inspected and results quantified as log CFU/mL.

MRSA (strain USA300) [1] = test: Kill-curve test (CFU over time); format: cell-based, Methicillin-resistant Staphylococcus aureus; conditions: for MRSA growth by 24 hours: cannabinoid alone at ½×MIC
Protocol: as §1
(§4) MRSA strain, USA300, was cultured in Luria-Bertani (LB) medium and inoculated at 37 C.
as §3

E. coli strain K12 = test: Checkerboard assay, FICI of cannabinoid/silver combinations; format: cell-based, Escherichia coli; conditions: for FICI Silver Nanoparticles: Silver Nanoparticles in combination with the cannabinoid; for FICI Silver Sulfate: Silver Sulfate in combination with the cannabinoid
Protocol: as §1
(§5) Using checkerboard analysis, the fractional inhibitory concentration index (FICI) was calculated for the 96-well plate test to illustrate synergy.
as §2
(§6) Cannabinoids or silver (expressed as the concentration of silver not the salt) were serially diluted 2-fold across the 96-well plate (Costar, catalog no. 3370) followed by addition of 100 μL of bacterial cultures with an OD600 of 0.0025. […] Wells turbidity were then analyzed using Varioskan™ microplate reader.
(§7) FICI was calculated in a checkerboard assay based on the turbidity of the wells. FIC of each agent was determined as the ratio of the minimal inhibitory concentration MIC of one agent in the presence of the other agent to the MIC of that agent alone. FICI was consequently computed as the sum of each agent's FIC.

MRSA (USA300) = test: as above; format: cell-based, Methicillin-resistant Staphylococcus aureus
Protocol: as §1, §5, §4, §6, §7

MRSA (strain USA300) [2] = test: microbe, parasite or virus in culture; format: cell-based, Methicillin-resistant Staphylococcus aureus; conditions: agent alone, silver expressed as silver
Excerpt: In therapeutic applications, synergy between active ingredients occurs when an observed combined therapeutic effect is greater than the sum of therapeutic effects of individual active ingredients, or a new therapeutic effect is produced that the active ingredients could not produce alone. […] In this context, the enhancement of therapeutic effect may take the form of increased efficacy or potency and/or decreased adverse effects. The synergistic effect may be mediated in whole or in part by the pharmacokinetics and/or pharmacodynamics of the active ingredients in a subject, so that the amount and proportion of the ingredients in the formulation may be synergistic in vivo. This in vivo synergy may be effected with a formulation that includes the active ingredients in amounts and proportions that are also synergistic in in vitro assays of efficacy. As used herein, the term “synergistically effective amounts” accordingly refers to amounts that are synergistic in vivo and/or in vitro. A numeric quantification of synergy is often expressed as a fractional inhibitory concentration index (FICI), which represents the sum of the fractional inhibitory concentrations (FICs) of each drug tested, where the FIC is determined for each drug by dividing the minimum inhibitory concentration (MIC, the lowest concentration of the drug which prevents visible growth of the bacterium in a standard in vitro assay—standard colorometric assay based on resazurin) of each drug when used in combination by the MIC of each drug when used alone. In very general terms, a FICI lower or higher than 1 indicates positively correlated activity (at least additive or potentiation) or an absence of positive interactions, respectively. […] (as described and used by Joung D K et al. and Rakoliya K et al.)
as §6

MRSA (strain USA 300) = format: cell-based, Methicillin-resistant Staphylococcus aureus; conditions: for inhibition of bacterial growth (ring): single agent at 2% w/w to PVA, films and coated catheter sections, 24 hours
Protocol: PVA films were made by solvent casting using 33 μl drops of 2.5% PVA (88% hydrolyzed, 125 KDa molecular weight) mixed with CBC, CBG or CBGA (2% w/w to PVA). […] 3 mm sections of a urethral catheter (BARDEX® BARD®) were cut and coated with the same 33 μl volume of PVA/Silver/cannabinoid used to make films. Films and coated catheter sections were dried overnight in the dark. Five cavities were created in the LB agar plates containing MRSA (strain USA 300) at OD600 of 0.005. PVA films and catheters coated with PVA films were then placed in the cavities and moistened with 20 μL of deionized distilled water. Plates were incubated for 24 hours at 37° C.

[3] = 8 mg/L cannabinoid + 2.5, 1.25 and 0.625 mg/L AgSO4 (each)
[4] = cannabinoid ½×MIC + AgNP ⅛×MIC (5 mg/L)
[5] = cannabinoid with silver sulfate
[6] = Silver Nitrate in combination with the cannabinoid
[7] = cannabinoid with silver nitrate
[8] = cannabinoid ½×MIC + silver nitrate 1 mg/L
[9] = cannabinoid ½×MIC + silver nitrate 5 and 8 mg/L
[10] = cannabinoid with silver nanoparticles
[11] = Staphylococcus aureus, read-out: MIC

SMILES | time through which bacterial growth was inhibited (E. coli (strain K12)) [h] | time through which the effect persisted (E. coli (strain K12)) [h] | time to the reduction in E. coli CFU (E. coli (strain K12)) [h] | time through which E. coli growth was inhibited (E. coli (strain K12); [3]) [h] | time to the reduction in E. coli CFU (E. coli (strain K12); [3]) [h] | inhibitory effect on E. coli growth over 24 hours (E. coli (strain K12)) | inhibition of E. coli growth over 24 hours (E. coli (strain K12)) | inhibition of E. coli growth (summary) (E. coli (strain K12)) | kill-curve effect (CFU) (MRSA (strain USA300) [1]) | MRSA growth by 24 hours (MRSA (strain USA300) [1]) | kill-curve effect (CFU) (MRSA (strain USA300) [1]; [4]) | time of onset of bactericidal effect (MRSA (strain USA300) [1]; [4]) [h] | time through which bactericidal effect persisted (MRSA (strain USA300) [1]; [4]) [h] | FICI Silver Nanoparticles (E. coli strain K12) | FICI Silver Sulfate (E. coli strain K12) | interaction (interpretation of FICI) (E. coli strain K12; [5]) | FICI (MRSA (USA300); [6]) | interaction (interpretation of FICI) (MRSA (USA300); [7]) | MIC (MRSA (strain USA300) [2]) [µg/mL] | inhibition of bacterial growth (ring) (MRSA (strain USA 300)) | further results
CCCCCc1cc2c(c(O)c1C(=O)O)C=CC(C)(CCC=C(C)C)O2 (centres unmarked) [CBCA, cannabichromenic acid] | 24 | 24 | ≤ 4 | 24 | ≤ 6 | failed to achieve any inhibitory effect | failed to achieve any inhibition | fail to achieve any detectable inhibition | greater bactericidal effect | returned to levels equal to that of 0×MIC treatment | rapid bactericidal effect | 2 | 24 | 1.25 | 0.50 | synergistic | 2 | no improved antibiotic affect | 2 | – | time of full elimination of CFU (MRSA (strain USA300) [1]; [4]): 4 h
CCCCCc1cc(O)c(C/C=C(\C)CCC=C(C)C)c(O)c1 [CBG, cannabigerol] | – | – | – | – | – | – | – | – | highly comparable bactericidal effect | returned to levels equal to that of 0×MIC treatment | rapid, full bactericidal effect | 2 | 24 | 1.25 | 1 | not observed | 0.625 | partially synergistic | – | some level of inhibition | time for which bactericidal effect persisted (MRSA (strain USA300) [1]): 24 h; kill-curve effect (CFU) (MRSA (strain USA300) [1]; cannabinoid ¼×MIC + silver nitrate 5 and 8 mg/L): perceptibly bactericidal; kill-curve effect (CFU) (MRSA (strain USA300) [1]; cannabinoid ½×MIC + AgNP 1/160×MIC (0.25 mg/L)): bactericidal effect which was greater than that seen with ½×MIC CBG alone; kill-curve effect (CFU) (MRSA (strain USA300) [1]; [8]): bactericidal effect; time for which bactericidal effect remained (MRSA (strain USA300) [1]; [8]): up to 6 hours; time of onset of bactericidal effect (MRSA (strain USA300) [1]; [8]): 2 h; kill-curve effect (CFU) (MRSA (strain USA300) [1]; [9]): fully bactericidal effect; time of onset of bactericidal effect (MRSA (strain USA300) [1]; [9]): 2 h; time through which bactericidal effect remained (MRSA (strain USA300) [1]; [9]): 24 h; antibiotic effect of combination compared with silver nanoparticles alone (MRSA (strain USA 300)): increased antibiotic effect; FICI (MRSA (USA300); Silver Nanoparticles in combination with the cannabinoid): 0.625; interaction (interpretation of FICI) (MRSA (USA300); [10]): partial synergy; MIC (MRSA (strain USA300) [2]; [11]): 2 µg/mL
O=[N+]([O-])[O-].[Ag+] [silver nitrate, reference compound] | – | – | – | – | – | – | – | – | – | – | – | – | – | – | – | – | – | – | 16 | some level of inhibition | bacterial growth at 24 hours (MRSA (strain USA300) [1]; silver nitrate alone, 1 mg/L): full bacterial growth had occurred; duration of bacterial growth inhibition (MRSA (strain USA300) [1]; silver nitrate alone, 5 mg/L): 4 h; duration of bacterial growth inhibition (MRSA (strain USA300) [1]; silver nitrate alone, 8 mg/L): 6 h; inhibition of bacterial growth (ring) (MRSA (strain USA 300); listed as Silver nitrate): strong inhibition
C=C(C)[C@@H]1CCC(C)=C[C@H]1c1c(O)cc(CCCCC)cc1O [CBD, cannabidiol, reference compound] | – | – | – | – | – | – | no inhibition | fail to achieve any detectable inhibition | – | returned to levels equal to that of 0×MIC treatment | rapid bactericidal effect | 2 | – | 1.25 | 1 | not observed | 2 | no improved antibiotic affect | – | – | inhibition of E. coli growth over 24 hours by the combination (E. coli (strain K12); 16 mg/L cannabinoid + 2.5 mg/L AgSO4): did not result in a substantial inhibition; also recorded: no increase in antimicrobial activity; MRSA growth over 24 hours compared to cannabinoid alone (MRSA (strain USA300) [1]; [4]): substantive decrease; MIC (MRSA (strain USA300) [2]; [11]): 2 µg/mL
C=C(C)[C@@H]1CCC(C)=C[C@H]1c1c(O)cc(CCCCC)c(C(=O)O)c1O [CBDA, cannabidiolic acid] | 24 | 24 | ≤ 4 | 24 | ≤ 6 | failed to achieve any inhibitory effect | failed to achieve any inhibition | fail to achieve any detectable inhibition | – | – | – | – | – | 0.73 | 0.52 | potentiation | 2 | no improved antibiotic affect | – | – | interaction (interpretation of FICI) (E. coli strain K12; [10]): potentiation
